Data as given in patent US20240024365A1, “POTENTIATION OF BONE MARROW CELL ACTIVITY BY COADMINISTRATION WITH OXYTOCIN” (CREATIVE MEDICAL TECHNOLOGIES, INC., priority 2022, published 2024).

Key:
[1] = tested on: human umbilical vein endothelial cell (HUVEC); test: HUVEC proliferation in vitro; type: cell-based; details: compared among 73 factors tested
Experimental: (§1) Methods: ProCell(oxytocin) was assessed for ability to stimulate human umbilical vein endothelial cell (HUVEC) proliferation in vitro. Selected compounds where tested for ability to stimulate colony and tube formation. In vivo angiogenic activity was tested by administration of bone marrow mononuclear cells alone, or ProCell-treated bone marrow mononuclear cells in the hindlimb ischemia assay.

hindlimb ischemia = test: Hindlimb ischemia assay (femoral artery ligation), limb survival; type: in vivo, mice
Experimental: Methods: ProCell(oxytocin) was assessed for ability to stimulate human umbilical vein endothelial cell (HUVEC) proliferation in vitro. Selected compounds where tested for ability to stimulate colony and tube formation. In vivo angiogenic activity was tested by administration of bone marrow mononuclear cells alone, or ProCell-treated bone marrow mononuclear cells in the hindlimb ischemia assay. Bone marrow mononuclear cells where obtained from syngeneic mice. Cells where administered at a concentration of 1 million cells per leg intramuscularly on days 0, 2, and 4, Oxytocin was injected in the same area on the same days at a concentration of 0.1 IU per mouse. Injury was induced by ligation of the femoral artery and neurotrophic injury was induced. Limb survival was quantified.

[2] = tested on: experimental autoimmune encephalomyelitis (EAE); test: SJL/J model of experimental autoimmune encephalomyelitis (EAE), syngeneic bone marrow cells cultured in ProCell; type: in vivo
Experimental: (§2) Methods: Immune modulatory activity of ProCell (oxytocin) was assessed by treatment of bone marrow mononuclear cells with ProCell (oxytocin) and subsequently assayed for proliferative ability and cytokine in response to CD3/CD28 stimulation. The concentration and incubation time of ProCell (oxytocin) identified for maximal immune modulatory effect was used to treat syngeneic bone marrow cells prior to implantation in the SJL/J model of EAE. Cell transplant experiments involving transfer of mesenchymal stem cells (CD105), monocytes (CD14), T cells (CD3) and B cells (CD20) where performed to identify the cellular population responsible for disease protective effect.

[3] = tested on: bone marrow mononuclear cells / endothelial progenitors; test: Endothelial colony and tube formation of bone marrow cells; type: cell-based, human; details: for Endothelial colony formation: bone marrow cells incubated in ProCell, semi-solid media with endothelial differentiation cocktail
Experimental: as §1
Bone marrow was aspirated from patients 3 patients 18-25 years old (Young Patients) and 3 patients 65-80 years old (Old Patients). The cells were either incubated in saline for 30 minutes or incubated in ProCell(oxytocin). Bone marrow cells were evaluated. Evaluation of colony formation was performed by plating mononuclear cells in semi-solid media containing endothelial differentiation cocktail. Number of colonies where counted.

[4] = tested on: allogeneic peripheral blood mononuclear cells (mixed lymphocyte reaction); test: Mixed lymphocyte reaction (MLR) with ProCell (oxytocin) treated cord blood CD14 monocytes; type: cell-based, human; details: for Proliferation in MLR: ProCell treated CD14 monocytes added to MLR, tritiated thymidine; for Treg (FoxP3) generation in MLR: flow cytometry
Experimental: Methods: UCBMNC where treated with ProCell (oxytocin) and monocytic populations where extracted by CD14 Magnetic Activated Cell Separation (MACS). Immune modulatory activity of isolated cells was examined by coculture with allogeneic lymphocytes, as well as added to ongoing mixed lymphocyte reaction (MLR). Proliferation and cytokine production was assessed. Furthermore generation of T regulatory cells was examined by flow cytometry for FoxP3 and ability to suppress T cell proliferation stimulated by CD3/CD28.
Cryopreserved human umbilical cord mononuclear cells (UB-MNCs) were obtained from All Cells, LLC. Immediately prior to the experiment the UBMNC s were thawed in a 37° C. water bath for about one minute and then washed twice in 10 ml PBS with 100 μl DNase (Sigma #D4527-40KU, 1 mg/ml). The number of viable cells was determined using the trypan blue exclusion method. Cell viability generally ranged from 80% to 90%.
Using magnetic antibody cell sorting (MACS), UB-MNCs were selected CD14+ monocytes, the MNC were centrifuged at 1000 rpm×10 minutes, the supernatant aspirated and the cells resuspended in 80 μl of buffer per […] and incubated at 4° C. for 15 min. Antibody conjugated paramagnetic microbeads CD14 labeled beads (cat #130-050-201, Miltenyi Biotechwere used to enrich for monocytes. After incubation, the cells were washed with buffer and centrifuged at 1000 rpm for 10 min. The cells were resuspended in 500 μl of buffer, then passed through a magnetic column that trapped the paramagnetic beads and the cells they were attached to (AutoMacs Pro). The magnetic field was disengaged and the cells collected.
CD14 cells were cultured in ProCell (oxytocin) at various concentrations in Opti-Mem media with 10% fetal calf serum for 1 hour at 37 Celsius. Cells where subsequently washed in Phosphate Buffered Saline and plated in vitro. Assessment of Treg generation was performed in mixed lymphocyte reaction with allogeneic peripheral blood mononuclear cells. The culture lasted either 48 or 72 hours and various concentrations of ProCell (oxytocin) treated cord blood CD14 expressing cells where added to the responding PBMC. Evaluation of proliferation was performed using the tritiated thymidine method, and cytokine production was measured using ELISA.
Additionally, the stimulation of FoxP3 expression was performed by flow cytometry using fixation and permeabiliization method.

[5] = tested on: CD3/CD28 stimulated T cell proliferation; test: CD3/CD28 stimulation of ProCell (oxytocin) treated bone marrow mononuclear cells: proliferation and cytokines; type: cell-based
Experimental: as §2

critical limb ischemia = test: Pilot study in patients with critical limb ischemia; type: in vivo, human patients
Experimental: Three patients suffering from critical limb ischemia were recruited. Patients matched the following inclusion criteria. a. Unreconstructable arterial disease was determined by a vascular surgeon who is not participating in the study. Unreconstructable arterial disease is defined by atherocclusive lesions within the arterial tree of the extremity that due to extent or morphology are not amenable to surgical bypass or PTCA and stenting. b. Objective evidence of severe peripheral arterial disease includes an ankle brachial index (ABI) of less than 0.55, and/or a resting toe brachial index (TBI) of […]. c. Patients must be competent to give consent. d. No history of malignant disease except for nonmelanoma skin cancer, no suspicious findings on chest x-ray, mammography (women over age 35), Papanicolaou smear (women over age 40), a normal fecal occult blood (over age 50) and a normal prostate specific antigen (men over age 45). Patients were injected with 10(8) bone-marrow mononuclear cells/aspirate, and administration of ProCell(oxytocin) was performed concurrently. Injections were performed using 10 million cells per injection, with 10 injections locally at the area of failed perfusion in a 10 cm×10 cm area in the gastrocnemius muscle. Ankle Brachial index was measured by comparing the ankle and brachial pressure.

[6] = ProCell treated monocytes, ELISA
[7] = bone marrow cells with concurrent ProCell, patients

CC[C@H](C)[C@@H]1NC(=O)[C@H](Cc2ccc(O)cc2)NC(=O)[C@@H](N)CSSC[C@@H](C(=O)N2CCC[C@H]2C(=O)N[C@@H](CC(C)C)C(=O)NCC(N)=O)NC(=O)[C@H](CC(N)=O)NC(=O)[C@H](CCC(N)=O)NC1=O [ProCell, Oxytocin]
Stimulation of HUVEC proliferation [1]: highest stimulatory activity
Limb loss (hindlimb ischemia; ProCell incubated bone marrow cells): prevents limb loss
Limb loss (hindlimb ischemia; ProCell incubated bone marrow cells, listed as ProCell(oxytocin)): prevent limb loss
Neoangiogenesis in hindlimb ischemia model (hindlimb ischemia; bone marrow mononuclear cells/aspirate incubated with ProCell): enhanced ability to stimulate neoangiogenesis
Limb loss (hindlimb ischemia; localized separate intramuscular administration of ProCell and bone marrow mononuclear cells/aspirate): prevention of limb loss
Relapse of EAE ([2]; animals treated with ProCell cultured cells): accelerated reduction of relapse
Inhibition of EAE ([2]; animals treated with ProCell cultured syngeneic bone marrow cells): Dose dependent inhibition of EAE
FoxP3 expressing cells ([2]; correlated with disease inhibition): increased FoxP3 expressing cells
Endothelial colony formation [3]: increases endothelial colony formation
Endothelial colony formation ([3]; listed as ProCell(oxytocin)): potent induction
Tube formation ([3]; endothelial progenitors and non-purified bone marrow mononuclear cells): potent induction
Proliferation in MLR [4]: suppress proliferation
Proliferation in MLR ([4]; listed as ProCell (oxytocin)): actively inhibited ongoing MLR
TGF-beta in MLR ([4]; ProCell treated monocytes): augmentation
IFN-gamma in MLR [4, 6]: suppress IFN-Gamma
IL-10 in MLR [4, 6]: enhances IL-10
IL-10 in MLR ([4]; ProCell treated monocytes, ELISA, listed as ProCell (oxytocin)): augmentation
Treg (FoxP3) generation in MLR ([4]; ProCell treated monocytes): enhances Treg (FoxP3)
Treg (FoxP3) generation in MLR ([4]; ProCell treated monocytes, listed as ProCell (oxytocin)): in vitro generation of active T regulatory cells was observed
Stimulation of allogeneic T cell proliferation ([4]; coculture of ProCell cultured CD14 cells with allogeneic lymphocytes): did not stimulate allogeneic T cell proliferation
IFN-gamma production ([5]; CD3/CD28 stimulation): inhibition
IL-10 production ([5]; CD3/CD28 stimulation): upregulation
IL-12 production ([5]; CD3/CD28 stimulation): inhibition
TGF-beta production ([5]; CD3/CD28 stimulation): upregulation
CD3/CD28 stimulated T cell proliferation ([5]; bone marrow mononuclear cells treated with ProCell): inhibitory effect
Amputation during the study period (critical limb ischemia; 10(8) bone-marrow mononuclear cells/aspirate with concurrent ProCell): No patients reported amputation
Critical limb ischemia, before and after photographs (critical limb ischemia; bone marrow cells with ProCell): improving critical limb ischemia
Ankle brachial index (critical limb ischemia; [7]): improving
Ankle pressure (critical limb ischemia; [7]): improving
